The text below walks through data of PubChem BioAssay AID2060494 (Molecular Pharmacology Branch, DTP, NCI, 2025).

Values joined by “and” are separate entries in the source; they are usually repeats but may differ in a detail not shown here. Equal values may be shown once.

This experiment concerns 435261-313-R-J1-PDC complex spheroid viability. As to the kind of experiment: Anticancer human tumor 435261-313-R-J1-PDC patient-derived colon adenocarcinoma cell line growth inhibition [GQUAD]. The following applies: for viability, T/C: stronger effect = lower value; for IC50: curve of compound. An excerpt:
DNA G-quadruplex Stabilizer Agents in Combinations in Complex Spheroids
A high-throughput screen of multi-cell type tumor spheroids was designed to identify active combinations of DNA G-quadruplex stabilizer agents and targeted small molecules. Complex spheroids include a stromal component modeled by human endothelial cells (HUVEC) and fibroblasts modeled by human mesenchymal stem cells (MSCs). The concentration ranges selected for each drug and investigational agent were based upon clinically achievable concentrations if the clinical Cmax of the agent was known.
Compounds. The drugs and investigational agents: pidnarulex (CX-5461; NSC782164), APTO-253 (NSC789042), BRACO-19 (NSC847499), peposertib (NSC802822), ceralasertib (NSC780249), elimusertib (NSC800525), camonsertib (NSC841442), AZD-1390 (NSC803789), olaparib (NSC753686), talazoparib (NSC767125), ART-558 (NSC835418), sotorasib (NSC818433), MRTX-1133 (NSC836407), SN-38 (NSC673596), topotecan (NSC609699), etoposide (NSC141540), doxorubicin (NSC123127), gemcitabine (NSC613327), 5-fluorouracil (NSC19893), paclitaxel (NSC125973), vemurafenib (NSC761431), panobinostat (NSC761190), R-306465 (JNJ-16241199; NSC773264), adavosertib (NSC754352), TP-3654 (NSC805149), carboplatin (NSC241240), KSQ-4279 (NSC840948), and staurosporine (NSC755774) were obtained from the National Cancer Institute (NCI) Developmental Therapeutics Program Chemical Repository (34). The FDA-approved anticancer drug set is available from the NCI Developmental Therapeutics Program. […] The stock solutions were prepared in dimethyl sulfoxide (DMSO, Sigma-Aldrich, St. Louis, MO, cat. D2650) at 800-fold the tested concentration and stored at -70 degrees C prior to their use. All drugs and investigational agents were tested over a range starting from a high concentration at or near the clinical Cmax and decreasing in half-log increments. If the clinical Cmax for an agent had not been determined, the highest concentration tested was 10 microM.
2.3 Cell Culture. All cells were maintained in an incubator at 37 degrees C and 5% CO2 with 95% humidity. The PDC lines were cultured according to standard operating procedures established by the NCI PDMR. All PDCs were thawed and cultured in Matrigel-coated flasks prepared with a working solution of 1X Ham's F-12 nutrient mix, without supplementation (Invitrogen, cat. 11765054), 100 U/mL penicillin-streptomycin (Invitrogen, cat. 15140122), and 2.5% Matrigel (Corning Inc., cat. 354248) for the first three passages. The 857933-349-R-J2-PDC line was cultured in 6C/Colon 1B media, which includes advanced DMEM/F-12 (Thermo Fisher Scientific, cat. 12634028), 10 mM HEPES (Thermo Fisher Scientific, cat. 15630080), 1X GlutaMAX supplement (Thermo Fisher Scientific, cat. 35050061), 0.1 mg/mL primocin (InvivoGen, cat. ant-pm-2), 10% defined fetal bovine serum, heat inactivated (HyClone Laboratories Inc., cat. SH30070.03HI), 50% L-WRN conditioned media (ATCC, cat. CRL-3276), 1.25 mM N-Acetyl-L-cysteine (Sigma-Aldrich, cat. A9165), 10 mM nicotinamide (Sigma-Aldrich, cat. N0636), 1X B-27 supplement (Thermo Fisher Scientific, cat. 17504044), 1X N-2 supplement (Thermo Fisher Scientific, cat. 17502048), 10 microM Y-27632 dihydrochloride (Tocris Bioscience, cat. 1254), and 50 ng/mL human EGF recombinant protein (Thermo Fisher Scientific, cat. PHG0311). The 485176-168-R4-J1-PDC line was cultured in Panc media, which includes all 6C/Colon 1B media components plus 100 ng/mL human FGF-10 (Thermo Fisher Scientific, cat. 100-26), 500 nM SB-431542 (Selleckchem, cat. S1067), and gastrin (Tocris, cat. 3006).
[…]
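Further: spheroids exposed to the agents for seven days before readout.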
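Wherever viability, T/C is given: percent of vehicle control viability with DMSO wells as 100%.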

As for `C#Cc1c(F)ccc2cc(O)cc(-c3ncc4c(N5CC6CCC(C5)N6)nc(OCC56CCCN5CC(F)C6)nc4c3F)c12` (stereo not drawn), the IC50 was > 10 µM and 6.01 µM. In addition, where the note is “compound 0.0316 µM”, the viability, T/C is 108% and 99.7% and 99.5%. The viability, T/C (compound 0.1 µM) was 99.8% and 93.3% and 92.1%. For the setting “compound 0.316 µM”, the viability, T/C was 92.1% and 98.2% and 99.7%. Where the note is “compound 1 µM”, the viability, T/C was 80.9% and 54.3% and 80.5%. Besides, under “compound 3.16 µM”, the viability, T/C was 51.5% and 76.6% and 64.6%. The viability, T/C (compound 10 µM) is 57.3% and 53.5% and 39.1%.
With `C=CC(=O)N1CCN(c2nc(=O)n(-c3c(C)ccnc3C(C)C)c3nc(-c4c(O)cccc4F)c(F)cc23)C(C)C1` (stereo not drawn), the IC50 was above 10 µM. In addition, the viability, T/C (compound 0.0316 µM) is 113% and 111% and 86%. Besides, the viability, T/C (compound 0.1 µM) was 96% and 101% and 88.2%. For the same compound, the viability, T/C (compound 0.316 µM) is 127% and 125% and 132%. Moreover, the viability, T/C (compound 1 µM) was 106% (2×) and 75.7%. Also, the viability, T/C (compound 3.16 µM) is 134% and 124% and 116%. Further, for the setting “compound 10 µM”, the viability, T/C is 110% and 131% and 101%.
With `CC(=O)O[C@H]1C(=O)[C@@]2(C)[C@H]([C@H](OC(=O)c3ccccc3)[C@]3(O)C[C@H](OC(=O)[C@H](O)[C@@H](NC(=O)c4ccccc4)c4ccccc4)C(C)=C1C3(C)C)[C@]1(OC(C)=O)CO[C@@H]1C[C@@H]2O`, the viability, T/C reads like this: (compound 0.0316 µM) 92.9% and 82.9% and 90.8%; (compound 0.1 µM) 76.1% and 66.3% and 52.6%; (compound 0.316 µM) 68.9% and 81.9% and 51.9%; (compound 1 µM) 68.7% and 43.9% and 69.8%; (compound 3.16 µM) 68.5% and 44.5% and 67.8%; (compound 10 µM) 65.1% and 53.1% and 63.9%.
Consider `CC(C)n1c(=O)n(C)c2cnc3cc(F)c(-c4ccc(OCCCN5CCCCC5)nc4)cc3c21`, for which the IC50 is 5.9 µM and 7.09 µM. In addition, where the note is “compound 0.0316 µM”, the viability, T/C is 94.4% and 102%. Further, the viability, T/C (compound 0.1 µM) is 88% and 71.4%. In addition, the viability, T/C (compound 0.316 µM) is 109% and 113%. For the same compound, the viability, T/C (compound 1 µM) was 81.4% and 57.3%. Also, the viability, T/C (compound 3.16 µM) was 65.6% and 84.4%. In addition, the viability, T/C (compound 10 µM) is 37.7% and 38.4%.
In the case of `CC1COCCN1c1cc(-c2ccnn2C)c2ccnc(-c3ccn[nH]3)c2n1` (stereo not drawn), the IC50 is 0.321 µM and 0.203 µM. The viability, T/C (compound 0.0316 µM) is 67.8% and 99.2%. Also, the viability, T/C (compound 0.1 µM) is 53.6% and 47.4%. Further, the viability, T/C (compound 0.316 µM) was 52.6% and 55.7%. In addition, for the setting “compound 1 µM”, the viability, T/C is 38.4% and 36.9%. The viability, T/C (compound 3.16 µM) is 37.2% and 32.5%. Where the note is “compound 10 µM”, the viability, T/C was 20.3% and 19.5%.
For the compound `CC1COCCN1c1cc(C2(O)CC3CCC(C2)O3)c2cnn(-c3ccn[nH]3)c2n1` (stereo not drawn), the IC50 is 0.259 µM and 0.174 µM. In addition, the viability, T/C (compound 0.0316 µM) was 85.4% and 89.4%. In addition, the viability, T/C (compound 0.1 µM) was 58.9% and 54.2%. For the same compound, the viability, T/C (compound 0.316 µM) was 49.8% and 43.1%. The viability, T/C (compound 1 µM) was 29.2% and 27%. For the same compound, the viability, T/C (compound 3.16 µM) was 26.7% and 20.5%. The viability, T/C (compound 10 µM) is 9.56% and 9.97%.
Consider `CC1COCCN1c1cc(C2(S(C)(=N)=O)CC2)nc(-c2ccnc3[nH]ccc23)n1` (stereo not drawn), for which the IC50 is > 10 µM and 2.92 µM. Moreover, the viability, T/C (compound 0.0316 µM) is 98.5% and 112% and 88.4%. The viability, T/C (compound 0.1 µM) was 87.1% and 109% and 69.1%. Moreover, the viability, T/C (compound 0.316 µM) was 88.4% and 79.8% and 94%. Further, the viability, T/C (compound 1 µM) is 83.2% and 81.4% (2×). Further, the viability, T/C (compound 3.16 µM) was 65.6% and 80.9% and 47.6%. In addition, the viability, T/C (compound 10 µM) is 51.2% and 79.8% and 42%.
Turning to `CCCS(=O)(=O)Nc1ccc(F)c(C(=O)c2c[nH]c3ncc(-c4ccc(Cl)cc4)cc23)c1F`, the half-inhibitory concentration (IC50) is 4.25 µM and 5.71 µM. For the same compound, the viability, T/C (compound 0.0316 µM) was 105% and 95%. Also, where the note is “compound 0.1 µM”, the viability, T/C was 69.6% and 103%. Besides, the viability, T/C (compound 0.316 µM) was 118% and 139%. Also, the viability, T/C (compound 1 µM) was 82.9% and 104%. Also, under “compound 3.16 µM”, the viability, T/C was 63.1% and 88.8%. For the same compound, where the note is “compound 10 µM”, the viability, T/C was 14.7% and 13.4%.
With `CC[C@@]1(O)C(=O)OCc2c1cc1n(c2=O)Cc2cc3c(CN(C)C)c(O)ccc3nc2-1`, the IC50 is above 0.316 µM. The viability, T/C (compound 0.000999 µM) is 126% and 101% and 118%. In addition, the viability, T/C (compound 0.00316 µM) was 61.6% and 94.8% and 94.1%. For the same compound, the viability, T/C (compound 0.00999 µM) is 96.5% and 98.2% and 110%. Moreover, the viability, T/C (compound 0.0316 µM) is 85.8% and 74.4% and 89.1%. Also, the viability, T/C (compound 0.0999 µM) is 75.2% and 72.1% and 83.8%. Besides, the viability, T/C (compound 0.316 µM) was 59% and 68.4% and 67.3%.
As to `CCc1c2c(nc3ccc(O)cc13)-c1cc3c(c(=O)n1C2)COC(=O)[C@]3(O)CC`, the viability, T/C runs as follows: (compound 0.000999 µM) 92.5% and 68.7% and 82%; (compound 0.00316 µM) 48.6% and 84.6% and 53.4%; (compound 0.00999 µM) 66.8% and 82.9% and 63.2%; (compound 0.0316 µM) 48.6% and 83.2% and 48.7%; (compound 0.0999 µM) 44% and 53.8% and 41.1%; (compound 0.316 µM) 30.8% and 54.3% and 25.1%.
